Laboratory results as given in patent US11944604B1, “Nanoformulation of spriooxindole and methods for treating hepatocellular carcinoma” (KING SAUD UNIVERSITY, priority 2023, dated 2024).
Like-named read-outs stand apart in the source and are kept apart here.

Experiments:
Male Balb/c mice = assay: Safety / tolerated dose study of compound 4d in healthy mice (blood count, blood chemistry, histopathology); type: in vivo; conditions: for Creatinine / GOT / GPT / Hb / Leukocytes / Platelets: mean ± SD
Procedure: (§1) An in vivo study was carried out in Male Balb/c mice, each weighing 15-25 g. All mice were purchased from Medical Experimental Research Center (MERC), Mansoura University, Egypt. Mice were acclimatized for one week in the new animal care facility, at the Zoology Department, Mansoura University, Egypt, under specific pathogen-free (SPF) conditions, and provided with conventional food and drinking water before the study. All animal experiments were carried out following the guidelines of the faculty of Science, Mansoura University, Egypt.
The lethal dose of compound 4d was evaluated according to standard Dose-Probing Tests. Mice were divided into groups of three for evaluating the LD50. Each group received either a different concentration of compound 4d (ranging from 10 ng/Kg to 200 mg/Kg), in corn oil, or the solvent 10% DMSO in corn oil, by intraperitoneal (IP) injection.
The weight and physical symptoms of the mice were monitored for 14 days. After that, all groups were sacrificed, and the liver, kidney, heart, and spleen were collected for histological evaluation of the toxicity of compound 4d. Blood was collected from each mouse for evaluation of the effect of compound 4d on liver and kidney function.
(§2) The blood was centrifuged to collect serum or plasma for biochemical analysis. The blood chemistry was evaluated to detect the level of serum alanine aminotransferase (ALT), serum aspartate aminotransferase (liver function test), and serum creatinine (kidney function test). Complete blood count analysis was carried out to detect the effect of compound 4d treatment on blood platelet count, because it has been reported that p53-MDM2 inhibitors cause high grade thrombocytopenia (i.e., decreased numbers of platelets).
(§3) The formalin-fixed liver specimens were embedded in paraffin, and sections were taken and prepared for hematoxylin and Eosin (H&E) staining. The slides were examined for hepatic architecture, degenerative changes, inflammatory changes, hepatocytes necrosis, mitosis, dysplastic changes and malignant transformation. 4 μm thick sections were prepared on coated slides.
In order to evaluate the tolerated dose of compound 4d, mice were intraperitoneally injected with different doses, and physical symptoms were evaluated daily for 14 days. The maximum dose used was 200 mg/kg, because of the solubility limitation in DMSO. DMSO was adjusted to the tolerated dose 10% in corn oil.

[1] = tested on: CCl4-induced liver cancer; assay: CCl4-induced liver cancer model: serum liver/kidney markers and H&E histopathology; type: in vivo, mice; parameters: GPT (ALT) / Creatinine / GOT (AST): unit not given here; conditions: for Creatinine / GOT (AST) / GPT (ALT): serum, mean ± SD; for mitotic activity of liver cells (H&E): CCl4-treated mice
Procedure: as §1
(§4) Twenty five mice were treated with carbon tetrachloride (CCl4, from LOBA Chemie Pvt Ltd, Mumbai, India, 1:5 in corn oil) twice weekly via IP injection for 24 weeks. After that period of time, mice were distributed evenly into 5 groups of 5 mice. Group 1 was treated with the solvent 10% DMSO; group 2 was treated with a low dose of compound 4d (50 mg/kg/daily) for 14 days; group 3 was treated with a high dose of compound 4d (200 mg/kg) for 6 hours; group 4 was treated with a high dose of compound 4d (200 mg/kg) for 24 hours; and group 5 was treated with a high dose of compound 4d (200 mg/kg) for 48 hours.
At the end of each treatment, all mice were sacrificed, and blood and liver were collected for evaluation. The liver samples were washed in ice cold 1× phosphate buffered saline (PBS), and fixed in 10% buffered formalin till examination.
as §2, §3
An in vivo model was carried out to test the efficacy of compound 4d in treatment of liver cancer by applying two regimens of compound 4d: a single dose of 200 mg/kg and the treated mice were sacrificed after 6, 24 or 48 hours; or a daily dose of 50 mg/kg for 14 days. Liver cancer was induced chemically by CCl4 (1:5 dilution in corn oil, twice per week). […] The liver architecture was disturbed and there were cirrhotic nodules with bridging fibrosis (FIG. 3A).

p53 = assay: Immunohistochemistry of p53 in liver sections of CCl4-treated mice; type: in vivo
Procedure: as §4
(§5) The sections were de-paraffinized in xylene, then rehydrated. Endogenous tissue peroxidase was blocked by incubating the slides for 5 minutes in 0.3% hydrogen peroxide. Antigen retrieval was done by heating the sections in citrate buffer, at pH 6.0, in a microwave. Then, the sections were incubated with monoclonal mouse p53 (clone DO-7, Dako, USA), rabbit polyclonal caspase 3 antibody (CPP32) Ab-4 (ThermoScientific), or with monoclonal mouse Ki-67 antigen (clone MIB-1, Dako, USA).
(§6) The slides were counterstained with hematoxylin and then dehydrated in alcohol and cleared xylene. The immunohistochemical and pathological changes were examined by light microscopy (binocular, Olympus). Images were taken using a digital camera (Canon, 5 mega pixels, at 3.2× optical zoom). […]

caspase 3 = assay: Immunohistochemistry of caspase 3 in liver sections of CCl4-treated mice; type: in vivo; conditions: low dose daily for 14 days or high dose for 48 hours
Procedure: as §4, §5, §6

Ki-67 = assay: Immunohistochemistry of Ki-67 in hepatocytes of CCl4-treated mice; type: in vivo; conditions: low (daily dose for 14 days) or high dose (single dose)
Procedure: as §4
The sections were de-paraffinized in xylene, then rehydrated. Endogenous tissue peroxidase was blocked by incubating the slides for 5 minutes in 0.3% hydrogen peroxide. Antigen retrieval was done by heating the sections in citrate buffer, at pH 6.0, in a microwave. […]
The statistical analysis was done using the software SPSS 19 for Microsoft Windows (SPSS Inc, Chicago, Illinois). A quantitative analysis of the number of hepatocytes with positive nuclear Ki-67 staining were tested using a one-way analysis of variance (ANOVA), with Duncan's multiple comparisons of the means to compare difference between means.
The level of proliferative Ki-67 marker was evaluated using immunohistochemistry. […]

HCT-116 = assay: Anticancer potency and ligand efficiency scores, HCT-116; type: cell-based; conditions: Homo sapiens
Excerpt: (§7) LE is used to measure the efficiency of compounds and determine binding affinity (in terms of binding energy or pIC50) in relation to the number of heavy atoms in a molecule. This provides a way to compare the affinity of molecules corrected for their size.
(§8) LE represents the ratio of the affinity of a ligand divided by the number of heavy (non-hydrogen) atoms in the molecule (LE=ΔG/[number of heavy atoms. LE can be calculated according to the following equation: LE=(plC50×1.37)/NHA • where: • IC50=half-maximal inhibitory concentration (in term of molar concentration). • NHA=non-hydrogen atom. The recommended LE value for lead-likeness should be in the range of 0.3. The acceptable LE value for drug-likeness should be higher than 0.3.
(§9) LLE can be calculated as follows: LLE=pIC50−C log P

HepG2 = assay: Anticancer potency and ligand efficiency scores, HepG2; type: cell-based; conditions: Homo sapiens
Excerpt: as §7, §8, §9

PC-3 = assay: Anticancer potency and ligand efficiency scores, PC-3; type: cell-based; conditions: Homo sapiens
Excerpt: as §7, §8, §9

[2] = Lipophilicity (log K as surrogate for log P); type: physicochemical
Procedure: An LLE value≥3 for a lead compound is acceptable, and for a drug candidate LLE value ≥5 is recommended. To get more accurate results, log P was calculated practically, and Log K was measured as indicator and surrogate for log p.

[3] = tested on: colon, liver and prostate cancer; conditions: anticancer activity against colon; cited from earlier work
colon cancer cells = conditions: cited from earlier work
[4] = healthy mice, IP, 50 mg/kg/14 d
[5] = healthy mice, IP, 200 mg/kg/24 hrs
[6] = healthy mice, IP, 200 mg/kg/48 hrs

Q: Which results are given for O=C(/C=C/c1ccc(Cl)cc1Cl)[C@H]1[C@H](c2ccc(Cl)cc2Cl)[C@H]2CSCN2[C@]12C(=O)Nc1ccccc12 [Compound 4d, (3R,6′S,7′R,7a′S)-7′-(2,4-dichlorophenyl)-6′-((E)-3-(2,4-dichlorophenyl)acryloyl)-1′,6′,7′,7a′-tetrahydro-3′H-spiro[indoline-3,5′-pyrrolo[1,2-c]thiazol]-2-one]?
A: change in the behavior, feeding or drinking of the mice (Male Balb/c mice; IP, doses up to 200 mg/kg, observed daily for 14 days): did not cause any change; Creatinine (Male Balb/c mice; [4]): 0.49 ± 0.21; GOT (Male Balb/c mice; [4]): 281.0 ± 231.9; GPT (Male Balb/c mice; [4]): 486.6 ± 339.9; Hb (Male Balb/c mice; [4]): 10.16 ± 1.1; Leukocytes (Male Balb/c mice; [4]): 12.5 ± 6.9; Platelets (Male Balb/c mice; [4]): 433.0 ± 304.6; Creatinine (Male Balb/c mice; [5]): 0.67 ± 0.24; GOT (Male Balb/c mice; [5]): 129.6 ± 56.5; GPT (Male Balb/c mice; [5]): 498.0 ± 228.8; Hb (Male Balb/c mice; [5]): 10.1 ± 1.43; Leukocytes (Male Balb/c mice; [5]): 10.6 ± 6.9; Platelets (Male Balb/c mice; [5]): 519 ± 302.9; Creatinine (Male Balb/c mice; [6]): 0.692 ± 0.567; GOT (Male Balb/c mice; [6]): 145.7 ± 198.9; GPT (Male Balb/c mice; [6]): 368.0 ± 208.1; Hb (Male Balb/c mice; [6]): 10.4 ± 1.78; Leukocytes (Male Balb/c mice; [6]): 13.6 ± 6.4; Platelets (Male Balb/c mice; [6]): 407.0 ± 281.6; pathological alteration in kidney, heart or spleen (Male Balb/c mice; healthy mice, histopathology): did not cause any pathological alteration; platelet count (complete blood count) (Male Balb/c mice; healthy mice, in words): no aberrant or significant change; liver architecture, hematoxylin and eosin staining (Male Balb/c mice; healthy mice, treatment for 14 days): normal liver architecture without any degenerative changes; Creatinine ([1]; CCl4 + 50 mg/kg/14 d): 0.4120 ± 0.2; GOT (AST) ([1]; CCl4 + 50 mg/kg/14 d): 449.20 ± 109.2; GPT (ALT) ([1]; CCl4 + 50 mg/kg/14 d): 2028.6 ± 168; Creatinine ([1]; CCl4 + 200 mg/kg/6 hrs): 0.4560 ± 0.1823; GOT (AST) ([1]; CCl4 + 200 mg/kg/6 hrs): 3419.00 ± 130.5; GPT (ALT) ([1]; CCl4 + 200 mg/kg/6 hrs): 3430.4 ± 137.48; Creatinine ([1]; CCl4 + 200 mg/kg/24 hrs): 0.4860 ± 0.17; GOT (AST) ([1]; CCl4 + 200 mg/kg/24 hrs): 1161.00 ± 108.5; GPT (ALT) ([1]; CCl4 + 200 mg/kg/24 hrs): 2209.0 ± 132.8; Creatinine ([1]; CCl4 + 200 mg/kg/48 hrs): 0.4660 ± 0.16; GOT (AST) ([1]; CCl4 + 200 mg/kg/48 hrs): 208.40 ± 9.32; GPT (ALT) ([1]; CCl4 + 200 mg/kg/48 hrs): 961.6 ± 15.96; mitotic activity of liver cells (H&E) ([1]; daily dose of 50 mg/kg for 14 days): no mitotic activity; mitotic activity of liver cells (H&E) ([1]; single dose of 200 mg/kg, after 6 hours): 1 /10 H.P.F.; mitotic activity of liver cells (H&E) ([1]; single dose of 200 mg/kg, longer incubation (24 hours)): 1 /10 H.P.F.; mitotic activity of liver cells (H&E) ([1]; single dose of 200 mg/kg, two days (48 hours)): 2 /10 H.P.F.; level of p53 in liver sections (p53; daily dose of 50 mg/kg for 14 days, versus mice only treated with CCl4): higher levels of detected p53; activation of p53 in liver sections (p53; single dose of 200 mg/kg for 6, 24 or 48 hours): time-dependent activation of p53; level of caspase 3 in liver sections (caspase 3): induced the activation of caspase 3; number of Ki-67 nuclear stained hepatocytes (Ki-67): significantly increased; IC50 (HCT-116; read-out: HCT-116 (unnamed value under the cell line head)): 2 µM; IC50 (HCT-116; read-out: pIC50 (converted)): 2.04 µM; IC50 (HepG2; read-out: HepG2 (unnamed value under the cell line head)): 0.85 µM; IC50 (HepG2; read-out: IC50 (converted)): 0.851 µM; IC50 (PC-3; read-out: PC-3 (unnamed value under the cell line head)): 1.8 µM; IC50 (PC-3; read-out: pIC50 (converted)): 1.82 µM; log K [2]: 1.19; selectivity index [3]: greater than 2; apoptosis (Bcl-2 inhibition, Bax activation) (colon cancer cells): induction of apoptosis; colony formation and wound healing (colon cancer cells; treated colon cancer cells): inhibited colony formation, and wound healing; p21 gene expression (colon cancer cells; treated colon cancer cells): overexpression of cell cycle inhibitor p21 gene; p53 activation (colon cancer cells; treated colon cancer cells): activation of p53
